# From article PMC3714356 (The Journal of investigative dermatology, 2013)
# Where two headings read alike, the source gives them in different places.
# Key:
# Cyp1b1 = assay: HaCaT cells, CYP1B1 mRNA by Reverse Transcriptase Real-Time PCR; format: cell-based, human; details: 1 μM, 24h
# Cyp1a1 [1] = assay: HaCaT cells, CYP1A1 mRNA by Reverse Transcriptase Real-Time PCR; details: for induction of CYP1A1 mRNA: 100 nM; for Cyp1a1 induction, time dependence: 24h compared to 3 and 6h
# AhR [2] = molecular target: T1, AhR (Homo sapiens, UniProt P35869); assay: cell-based
# T1 sequence (P35869 11-848): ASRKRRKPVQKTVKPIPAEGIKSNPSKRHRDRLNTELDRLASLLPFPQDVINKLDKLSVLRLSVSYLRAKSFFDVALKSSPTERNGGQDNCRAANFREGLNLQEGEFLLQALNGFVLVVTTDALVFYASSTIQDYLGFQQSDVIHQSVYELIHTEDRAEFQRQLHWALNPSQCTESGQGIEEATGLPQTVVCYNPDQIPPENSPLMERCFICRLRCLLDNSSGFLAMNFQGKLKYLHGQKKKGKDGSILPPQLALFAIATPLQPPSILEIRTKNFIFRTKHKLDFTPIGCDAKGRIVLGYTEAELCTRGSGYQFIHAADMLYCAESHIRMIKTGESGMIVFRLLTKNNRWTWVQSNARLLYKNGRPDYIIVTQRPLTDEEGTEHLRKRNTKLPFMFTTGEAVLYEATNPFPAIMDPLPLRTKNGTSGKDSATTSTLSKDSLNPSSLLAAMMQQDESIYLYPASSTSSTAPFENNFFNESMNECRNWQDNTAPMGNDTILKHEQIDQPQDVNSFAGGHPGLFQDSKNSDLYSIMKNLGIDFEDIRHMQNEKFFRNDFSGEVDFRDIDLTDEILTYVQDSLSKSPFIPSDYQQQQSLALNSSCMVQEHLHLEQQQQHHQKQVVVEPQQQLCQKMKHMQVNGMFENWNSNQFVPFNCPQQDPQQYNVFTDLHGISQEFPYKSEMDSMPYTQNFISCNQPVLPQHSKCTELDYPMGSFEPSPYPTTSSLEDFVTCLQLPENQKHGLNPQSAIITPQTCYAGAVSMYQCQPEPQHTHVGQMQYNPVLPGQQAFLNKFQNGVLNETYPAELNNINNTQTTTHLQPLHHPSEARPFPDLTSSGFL
# Cyp1a1 [3] = details: human
# AhR [4] = molecular target: T1, AhR
# [5] = 6 hours of incubation, HG2L7.5c1 cells
molecule,measurement,setting,value
"O=Cc1c2[nH]c3ccccc3c2cc2[nH]c3ccccc3c12 [FICZ, 6-formylindolo[3,2-b]carbazole]",Cyp1b1 induction compared with ICZ or indirubin,Cyp1b1,significantly more potent
same,induction of CYP1A1 mRNA,Cyp1a1 [1]; 24h,Statistically significant induction
same,Cyp1a1 induction compared with ICZ or indirubin,"Cyp1a1 [1]; 1 μM, 24h",significantly more potent
same,"Cyp1a1 induction, time dependence",Cyp1a1 [1],higher at 24h
"Clc1cc2c(cc1Cl)Oc1cc(Cl)c(Cl)cc1O2 [TCDD, 2,3,7,8-tetrachlorodibenzo-p-dioxin, reference compound]",EC50,AhR [2],0.523 nM
O=C1Nc2ccccc2/C1=C1/Nc2ccccc2C1=O [indirubin],"Cyp1a1 induction, time dependence",Cyp1a1 [3],higher at 24h
O=Cc1c(Cc2c[nH]c3ccccc23)[nH]c2ccccc12 [malassezin],fold less potent than TCDD,AhR [4]; [5],20 fold
O=C1c2ccccc2-n2c1nc1ccccc1c2=O [tryptanthrin],fold less potent than TCDD,AhR [4],200 fold
same,EC50,AhR [2],107 nM
"indolo[3,2-b]carbazole [ICZ]",potency relative to the prototypical AhR agonist TCDD,AhR [4]; [5],equipotent
same,induction of CYP1A1 mRNA,Cyp1a1 [1]; 24h,Statistically significant induction
same,"Cyp1a1 induction, time dependence",Cyp1a1 [1],higher at 24h
